Tests used:
Heart [1] = experiment: Biodistribution in mouse heart at 8.4 MBq/0.1 ml, iv after 60 mins by PET imaging analysis; format: ADME, organism-based; settings: in vivo, 1 h
Liver [2] = experiment: Biodistribution in mouse liver at 8.4 MBq/0.1 ml, iv after 30 mins by PET imaging analysis; format: ADME, organism-based; settings: in vivo, 0.5 h
Blood [3] = experiment: Biodistribution in mouse blood at 8.4 MBq/0.1 ml, iv after 15 mins by PET imaging analysis; format: ADME, organism-based; settings: in vivo, 0.25 h
Mus musculus [4] = experiment: Biodistribution in mouse large intestine at 8.4 MBq/0.1 ml, iv after 30 mins by PET imaging analysis; format: ADME, organism-based; settings: in vivo, 0.5 h
Brain [5] = experiment: Biodistribution in mouse brain at 8.4 MBq/0.1 ml, iv after 60 mins by PET imaging analysis; format: ADME, organism-based; settings: in vivo, 1 h
Muscle tissue [6] = experiment: Biodistribution in mouse muscle at 8.4 MBq/0.1 ml, iv after 5 mins by PET imaging analysis; format: ADME, organism-based; settings: in vivo
Brain [7] = experiment: Biodistribution in mouse brain at 8.4 MBq/0.1 ml, iv after 30 mins by PET imaging analysis; format: ADME, organism-based; settings: in vivo, 0.5 h
Brain [8] = experiment: Biodistribution in mouse brain at 8.4 MBq/0.1 ml, iv after 15 mins by PET imaging analysis; format: ADME, organism-based; settings: in vivo, 0.25 h
Liver [9] = experiment: Biodistribution in mouse liver at 8.4 MBq/0.1 ml, iv after 5 mins by PET imaging analysis; format: ADME, organism-based; settings: in vivo
Mus musculus [10] = experiment: Biodistribution in mouse small intestine at 8.4 MBq/0.1 ml, iv after 15 mins by PET imaging analysis; format: ADME, organism-based; settings: in vivo, 0.25 h
Mus musculus [11] = experiment: Biodistribution in mouse small intestine at 8.4 MBq/0.1 ml, iv after 5 mins by PET imaging analysis; format: ADME, organism-based; settings: in vivo
Kidney [12] = experiment: Biodistribution in mouse kidney at 8.4 MBq/0.1 ml, iv after 5 mins by PET imaging analysis; format: ADME, organism-based; settings: in vivo
Spleen [13] = experiment: Biodistribution in mouse spleen at 8.4 MBq/0.1 ml, iv after 15 mins by PET imaging analysis; format: ADME, organism-based; settings: in vivo, 0.25 h
Brain [14] = experiment: Biodistribution in P-gp/BCRP knockout mouse brain by PET imaging analysis; format: ADME, organism-based; settings: in vivo
Kidney [15] = experiment: Biodistribution in mouse kidney at 8.4 MBq/0.1 ml, iv after 15 mins by PET imaging analysis; format: ADME, organism-based; settings: in vivo, 0.25 h
Lung [16] = experiment: Biodistribution in mouse lung at 8.4 MBq/0.1 ml, iv after 60 mins by PET imaging analysis; format: ADME, organism-based; settings: in vivo, 1 h
Blood [17] = experiment: Biodistribution in mouse blood at 8.4 MBq/0.1 ml, iv after 5 mins by PET imaging analysis; format: ADME, organism-based; settings: in vivo
Spleen [18] = experiment: Biodistribution in mouse spleen at 8.4 MBq/0.1 ml, iv after 5 mins by PET imaging analysis; format: ADME, organism-based; settings: in vivo
Mus musculus [19] = experiment: Biodistribution in mouse small intestine at 8.4 MBq/0.1 ml, iv after 1 min by PET imaging analysis; format: ADME, organism-based; settings: in vivo
Pancreas [20] = experiment: Biodistribution in mouse pancreas at 8.4 MBq/0.1 ml, iv after 60 mins by PET imaging analysis; format: ADME, organism-based; settings: in vivo, 1 h
Muscle tissue [21] = experiment: Biodistribution in mouse muscle at 8.4 MBq/0.1 ml, iv after 30 mins by PET imaging analysis; format: ADME, organism-based; settings: in vivo, 0.5 h
Muscle tissue [22] = experiment: Biodistribution in mouse muscle at 8.4 MBq/0.1 ml, iv after 1 min by PET imaging analysis; format: ADME, organism-based; settings: in vivo
Brain [23] = experiment: Ratio of drug uptake in P-gp/BCRP knockout mouse brain to wild type mouse brain; format: ADME; settings: in vivo
Kidney [24] = experiment: Biodistribution in mouse kidney at 8.4 MBq/0.1 ml, iv after 1 min by PET imaging analysis; format: ADME, organism-based; settings: in vivo
Liver [25] = experiment: Biodistribution in mouse liver at 8.4 MBq/0.1 ml, iv after 1 min by PET imaging analysis; format: ADME, organism-based; settings: in vivo
Lung [26] = experiment: Biodistribution in mouse lung at 8.4 MBq/0.1 ml, iv after 30 mins by PET imaging analysis; format: ADME, organism-based; settings: in vivo, 0.5 h
Mus musculus [27] = experiment: Biodistribution in mouse small intestine at 8.4 MBq/0.1 ml, iv after 30 mins by PET imaging analysis; format: ADME, organism-based; settings: in vivo, 0.5 h
Muscle tissue [28] = experiment: Biodistribution in mouse muscle at 8.4 MBq/0.1 ml, iv after 60 mins by PET imaging analysis; format: ADME, organism-based; settings: in vivo, 1 h
Heart [29] = experiment: Biodistribution in mouse heart at 8.4 MBq/0.1 ml, iv after 15 mins by PET imaging analysis; format: ADME, organism-based; settings: in vivo, 0.25 h
Mus musculus [30] = experiment: Biodistribution in mouse large intestine at 8.4 MBq/0.1 ml, iv after 15 mins by PET imaging analysis; format: ADME, organism-based; settings: in vivo, 0.25 h
Liver [31] = experiment: Biodistribution in mouse liver at 8.4 MBq/0.1 ml, iv after 60 mins by PET imaging analysis; format: ADME, organism-based; settings: in vivo, 1 h
Pancreas [32] = experiment: Biodistribution in mouse pancreas at 8.4 MBq/0.1 ml, iv after 1 min by PET imaging analysis; format: ADME, organism-based; settings: in vivo
Kidney [33] = experiment: Biodistribution in mouse kidney at 8.4 MBq/0.1 ml, iv after 60 mins by PET imaging analysis; format: ADME, organism-based; settings: in vivo, 1 h
Pancreas [34] = experiment: Biodistribution in mouse pancreas at 8.4 MBq/0.1 ml, iv after 5 mins by PET imaging analysis; format: ADME, organism-based; settings: in vivo
Heart [35] = experiment: Biodistribution in mouse heart at 8.4 MBq/0.1 ml, iv after 30 mins by PET imaging analysis; format: ADME, organism-based; settings: in vivo, 0.5 h
Brain [36] = experiment: Ratio of AUC (0 to 90 mins) in P-gp/BCRP knockout mouse brain to AUC (0 to 90 mins) in wild type mouse brain; settings: in vivo
Lung [37] = experiment: Biodistribution in mouse lung at 8.4 MBq/0.1 ml, iv after 15 mins by PET imaging analysis; format: ADME, organism-based; settings: in vivo, 0.25 h
Spleen [38] = experiment: Biodistribution in mouse spleen at 8.4 MBq/0.1 ml, iv after 30 mins by PET imaging analysis; format: ADME, organism-based; settings: in vivo, 0.5 h
Mus musculus [39] = experiment: Biodistribution in mouse large intestine at 8.4 MBq/0.1 ml, iv after 5 mins by PET imaging analysis; format: ADME, organism-based; settings: in vivo
Kidney [40] = experiment: Biodistribution in mouse kidney at 8.4 MBq/0.1 ml, iv after 30 mins by PET imaging analysis; format: ADME, organism-based; settings: in vivo, 0.5 h
Pancreas [41] = experiment: Biodistribution in mouse pancreas at 8.4 MBq/0.1 ml, iv after 15 mins by PET imaging analysis; format: ADME, organism-based; settings: in vivo, 0.25 h
Heart [42] = experiment: Biodistribution in mouse heart at 8.4 MBq/0.1 ml, iv after 5 mins by PET imaging analysis; format: ADME, organism-based; settings: in vivo
Muscle tissue [43] = experiment: Biodistribution in mouse muscle at 8.4 MBq/0.1 ml, iv after 15 mins by PET imaging analysis; format: ADME, organism-based; settings: in vivo, 0.25 h
Blood [44] = experiment: Biodistribution in mouse blood at 8.4 MBq/0.1 ml, iv after 1 min by PET imaging analysis; format: ADME, organism-based; settings: in vivo
Blood [45] = experiment: Biodistribution in mouse blood at 8.4 MBq/0.1 ml, iv after 60 mins by PET imaging analysis; format: ADME, organism-based; settings: in vivo, 1 h
Brain [46] = experiment: Biodistribution in mouse brain at 8.4 MBq/0.1 ml, iv after 5 mins by PET imaging analysis; format: ADME, organism-based; settings: in vivo
Mus musculus [47] = experiment: Biodistribution in mouse large intestine at 8.4 MBq/0.1 ml, iv after 60 mins by PET imaging analysis; format: ADME, organism-based; settings: in vivo, 1 h
Lung [48] = experiment: Biodistribution in mouse lung at 8.4 MBq/0.1 ml, iv after 5 mins by PET imaging analysis; format: ADME, organism-based; settings: in vivo
Lung [49] = experiment: Biodistribution in mouse lung at 8.4 MBq/0.1 ml, iv after 1 min by PET imaging analysis; format: ADME, organism-based; settings: in vivo
Pancreas [50] = experiment: Biodistribution in mouse pancreas at 8.4 MBq/0.1 ml, iv after 30 mins by PET imaging analysis; format: ADME, organism-based; settings: in vivo, 0.5 h
Spleen [51] = experiment: Biodistribution in mouse spleen at 8.4 MBq/0.1 ml, iv after 1 min by PET imaging analysis; format: ADME, organism-based; settings: in vivo
Brain [52] = experiment: Biodistribution in wild type mouse brain by PET imaging analysis; format: ADME, organism-based; settings: in vivo
Mus musculus [53] = experiment: Biodistribution in mouse small intestine at 8.4 MBq/0.1 ml, iv after 60 mins by PET imaging analysis; format: ADME, organism-based; settings: in vivo, 1 h
Liver [54] = experiment: Biodistribution in mouse liver at 8.4 MBq/0.1 ml, iv after 15 mins by PET imaging analysis; format: ADME, organism-based; settings: in vivo, 0.25 h
Heart [55] = experiment: Biodistribution in mouse heart at 8.4 MBq/0.1 ml, iv after 1 min by PET imaging analysis; format: ADME, organism-based; settings: in vivo
Mus musculus [56] = experiment: Biodistribution in mouse large intestine at 8.4 MBq/0.1 ml, iv after 1 min by PET imaging analysis; format: ADME, organism-based; settings: in vivo
Brain [57] = experiment: Biodistribution in mouse brain at 8.4 MBq/0.1 ml, iv after 1 min by PET imaging analysis; format: ADME, organism-based; settings: in vivo
Blood [58] = experiment: Biodistribution in mouse blood at 8.4 MBq/0.1 ml, iv after 30 mins by PET imaging analysis; format: ADME, organism-based; settings: in vivo, 0.5 h
Spleen [59] = experiment: Biodistribution in mouse spleen at 8.4 MBq/0.1 ml, iv after 60 mins by PET imaging analysis; format: ADME, organism-based; settings: in vivo, 1 h

Drug uptake (Heart [1]): 1.98 % ID/g | Drug uptake (Liver [2]): 18.42 % ID/g | Drug uptake (Blood [3]): 0.95 % ID/g | Drug uptake (Mus musculus [4]): 1.69 % ID/g | Drug uptake (Brain [5]): 0.08 % ID/g | Drug uptake (Muscle tissue [6]): 1.52 % ID/g | Drug uptake (Brain [7]): 0.12 % ID/g | Drug uptake (Brain [8]): 0.11 % ID/g | Drug uptake (Liver [9]): 15.3 % ID/g | Drug uptake (Mus musculus [10]): 22.18 % ID/g | Drug uptake (Mus musculus [11]): 14.31 % ID/g | Drug uptake (Kidney [12]): 8.36 % ID/g | Drug uptake (Spleen [13]): 2.05 % ID/g | Drug uptake (Brain [14]): Active | Drug uptake (Kidney [15]): 7.68 % ID/g | Drug uptake (Lung [16]): 2.24 % ID/g | Drug uptake (Blood [17]): 0.99 % ID/g | Drug uptake (Spleen [18]): 2.05 % ID/g | Drug uptake (Mus musculus [19]): 5.92 % ID/g | Drug uptake (Pancreas [20]): 2.66 % ID/g | Drug uptake (Muscle tissue [21]): 1.54 % ID/g | Drug uptake (Muscle tissue [22]): 2.37 % ID/g | Ratio (Brain [23]): 24 | Drug uptake (Kidney [24]): 12.33 % ID/g | Drug uptake (Liver [25]): 17.18 % ID/g | Drug uptake (Lung [26]): 3.34 % ID/g | Drug uptake (Mus musculus [27]): 25.4 % ID/g | Drug uptake (Muscle tissue [28]): 1.06 % ID/g | Drug uptake (Heart [29]): 3.56 % ID/g | Drug uptake (Mus musculus [30]): 1.01 % ID/g | Drug uptake (Liver [31]): 12.69 % ID/g | Drug uptake (Pancreas [32]): 2.96 % ID/g | Drug uptake (Kidney [33]): 4.91 % ID/g | Drug uptake (Pancreas [34]): 2.77 % ID/g | Drug uptake (Heart [35]): 3.08 % ID/g | Ratio AUC (Brain [36]): 8 | Drug uptake (Lung [37]): 3.76 % ID/g | Drug uptake (Spleen [38]): 2.03 % ID/g | Drug uptake (Mus musculus [39]): 0.76 % ID/g | Drug uptake (Kidney [40]): 7.44 % ID/g | Drug uptake (Pancreas [41]): 3.52 % ID/g | Drug uptake (Heart [42]): 4.43 % ID/g | Drug uptake (Muscle tissue [43]): 1.6 % ID/g | Drug uptake (Blood [44]): 3.14 % ID/g | Drug uptake (Blood [45]): 0.61 % ID/g | Drug uptake (Brain [46]): 0.1 % ID/g | Drug uptake (Mus musculus [47]): 1.98 % ID/g | Drug uptake (Lung [48]): 4.75 % ID/g | Drug uptake (Lung [49]): 14.3 % ID/g | Drug uptake (Pancreas [50]): 3.94 % ID/g | Drug uptake (Spleen [51]): 3.92 % ID/g | Drug uptake (Brain [52]): Active | Drug uptake (Mus musculus [53]): 21.23 % ID/g | Drug uptake (Liver [54]): 17.4 % ID/g | Drug uptake (Heart [55]): 11.25 % ID/g | Drug uptake (Mus musculus [56]): 0.81 % ID/g | Drug uptake (Brain [57]): 0.21 % ID/g | Drug uptake (Blood [58]): 0.87 % ID/g | Drug uptake (Spleen [59]): 1.36 % ID/g
Compound: COc1cc2ncnc(Oc3cccc(N[11C](=O)Nc4cc(C(C)(C)C(F)(F)F)on4)c3)c2cc1OC.Cl

Reference: ChEMBL document CHEMBL3351810, “[(11)C-carbonyl]CEP-32496: radiosynthesis, biodistribution and PET study of brain uptake in P-gp/BCRP knockout mice” (Bioorg Med Chem Lett, 2014)
